This is an account of results in ChEMBL document CHEMBL3864127, “Janadolide, a Cyclic Polyketide-Peptide Hybrid Possessing a tert-Butyl Group from an Okeania sp. Marine Cyanobacterium” (J Nat Prod, 2016).

Usually IC50 stands for the concentration that gives 50% inhibition.

Data set [1] has as its system Trypanosoma brucei brucei. The data set can be described thus: Antitrypanosomal activity against bloodstream form of Trypanosoma brucei brucei GUTat 3.1 after 72 hrs by Alamar blue assay. In kind it is functional. The settings on record: GUTat 3.1, 72 h. On the technique in general: Resazurin is reduced to fluorescent resorufin, in cell work by metabolically active cells.

Data set [2] in a line: Cytotoxicity against human MRC5 cells assessed as cell growth inhibition at 10 uM after 7 days by MTT assay. In kind it is toxicity, cell-based. The following applies: mrc5, 168 h. In general terms: Tetrazolium assays rely on reduction of a dye to a coloured formazan, in cell work by metabolically active cells.
Data set [3] can be described thus: Cytotoxicity against human HL60 cells assessed as cell growth inhibition at 10 uM after 72 hrs by MTT assay. The class given is toxicity, cell-based. The following applies: hl-60, 72 h.
Data set [4] can be described thus: Cytotoxicity against human HeLa cells assessed as cell growth inhibition at 10 uM after 72 hrs by MTT assay. In kind it is toxicity, cell-based.

The compound `C/C1=C\[C@@H](C(C)(C)C)OC(=O)[C@H](CC(C)C)N(C)C(=O)[C@H](C)N(C)C(=O)CNC(=O)[C@H](C(C)C)NC(=O)[C@@H]2CCCN2C(=O)[C@H](C)CC1` showed an IC50 in data set [1] of 47 nM. Further, the Activity result in data set [2], in data set [3] and in data set [4] was “Non-Toxic” in each case.
The compound `Cc1ccc(C(=O)Nc2ccc(S(=O)(=O)O)c3cc(S(=O)(=O)O)cc(S(=O)(=O)O)c23)cc1NC(=O)c1cccc(NC(=O)Nc2cccc(C(=O)Nc3cc(C(=O)Nc4ccc(S(=O)(=O)O)c5cc(S(=O)(=O)O)cc(S(=O)(=O)O)c45)ccc3C)c2)c1` [SURAMIN] showed an IC50 in data set [1] of 1200 nM.
